Experiments:
[1] = system: Aspergillus niger ATCC 16404; test: MIC by broth microdilution (RPMI 1640); assay type: cell-based; settings: ATCC16404
Method: (§1) We have tested the antimicrobial activity in vitro of over 100 tris(indolyl)methane derivatives against 16 strains of Gram-positive, Gram-negative bacteria and fungi including either sensitive or drug-resistant strains from ATCC, as well as resistant clinical isolates from the culture collection of the Laboratory for Control of Hospital Infections (Sechenov University, Moscow, Russia). The minimum inhibitory concentrations (MICs) were determined by the microdilution method in a cation-adjusted Müller–Hinton medium for bacteria and in a liquid culture medium RPMI 1640 with L-glutamine without sodium bicarbonate for fungi in accordance with the requirements of the Institute of Clinical and Laboratory Standards (CLSI/NCCLS). […] As a rule, their activity against Gram-negative bacteria was usually not that high. […] For comparison, the antimicrobial activity of prototype 4 is shown. The antibacterial antibiotic levofloxacin and the antifungal amphotericin B were used as reference drugs (Table 1).
(§2) The synthesis of compounds and the scheme of their preparation and purification, as well as physicochemical characteristics, were described earlier. To evaluate the biological activity in vitro, the compounds were dissolved in DMSO at a concentration of 2.0–6.4 mg/mL, followed by preparation of two-fold dilutions in the same solvent, if necessary. The solutions were further diluted in an aqueous medium for the final concentration of DMSO not to exceed 1%, and the concentration of the compounds ranged from 64.0 to 0.13 μg/mL. To study compounds in vivo, solutions for intravenous administration in 5% glucose solution were prepared. Solutions were sterilized by filtration through 0.22 µm filters (Millipore, Burlington, MA, USA).
(§3) Strains of Gram-positive, Gram-negative bacteria and fungi including sensitive or drug-resistant strains from ATCC, as well as resistant clinical isolates from the culture collection of the Laboratory for Control of Hospital Infections (Sechenov University, Moscow, Russia), were used. Clinical isolates of Gram-positive bacteria Staphylococcus aureus 5 (MRSA), Staphylococcus aureus 10, Staphylococcus aureus 100KC (MRSA), Staphylococcus epidermidis 533, Staphylococcus haemoliticus 585 and Enterococcus faecium 569, as well as collection cultures of Gram-positive bacteria Staphylococcus aureus ATCC 700699, Staphylococcus aureus ATCC 25923, Staphylococcus aureus ATCC 3798 and collection cultures of Gram-negative bacteria Escherichia coli ATCC 25922, Klebsiella pneumoniae ATCC 13883, Proteus vulgaris ATCC 13315, Salmonella cholerasuis ATCC 14028, Pseudomonas aeruginosa ATCC 27853 and collection cultures of the yeast Candida albicans ATCC 14053 and the fungi Aspergillus niger ATCC 16404 were used. To grow the microorganisms, we used Trypticase Soy Agar (TSA, Sigma-Aldrich Co., Burlington, MA, USA). Trypticase Soy Agar, BBL, was used for cultivation of Staphylococcus spp. and E. coli. For cultivation of Enterococcus spp. and P. aeruginosa we used a ready-made dry medium Columbia Agar Base, BBL. The media were sterilized by autoclaving at 121 °C for 15 min. Yeast culture C. albicans was grown on Sabouraud agar (peptone—10 g, glucose—40 g, agar—20 g, distilled water—1 L, pH 6.0), and filamentous fungi A. niger was grown on potato–glucose agar (potatoes—200 g, glucose—20 g, agar—15 g, distilled water—1 L, pH 5.5–6.0).
(§4) To determine the antibacterial effect, a liquid Müller–Hinton medium (Becton, Dickinson and Company, Cockeysville, MD, USA) was used; to determine the effect of compounds on fungi we used RPMI 1640 medium with L-glutamine, without sodium bicarbonate, which was prepared from a dry medium (ICN Biomedicals Inc., Costa Mesa, CA, USA) by dilution in distilled water, subsequent buffering with 0.165 M of morpholinepropanesulfonic acid (MOPS, Acros Organics B.V.B.A., Morris Plains, NJ, USA) and adjusting the pH of the medium to 7.0 by adding 1 N of NaOH solution. […]

[2] = system: Candida albicans ATCC 14053; test: MIC by broth microdilution (RPMI 1640); assay type: cell-based; settings: ATCC14053
Method: as §1, §2, §3, §4

SMILES: OCCCCCn1cc([C+](c2cn(CCCCCO)c3ccccc23)c2cn(CCCCCO)c3ccccc23)c2ccccc21.[Cl-] [Compound 1, tris(1-(5-Hydroxypentyl)-1H-indol-3-yl) methylium chloride]
- MIC [1]: > 64 µg/mL
- MIC [2]: > 64 µg/mL

SMILES: CCCn1cc([C+](c2cn(CCC)c3ccccc23)c2cn(C3=C(N(C)C)C(=O)NC3=O)c3ccccc23)c2ccccc21 [Compound 3, 1-(4-Dimethylamino-2,5-dioxo-2,5-dihydro-1H-pyrrol-3-yl) -1H-indol-3-yl) bis(1-propyl-1H-indol-3-yl) methylium chloride]
- MIC [1]: 2 µg/mL
- MIC [2]: 2 µg/mL

SMILES: CCCn1cc([C+](c2cn(CCC)c3ccccc23)c2cn(C3=C(N)C(=O)NC3=O)c3ccccc23)c2ccccc21.[Cl-] [Compound 2, (1-(4-Amino-2,5-dioxo-2,5-dihydro-1H-pyrrol-3-yl)-1H-indol-3-yl)bis(1-propyl-1H-indol-3-yl) methylium chloride]
- MIC [1]: 8 µg/mL
- MIC [2]: 12 µg/mL

From article PMC8878324, “Evaluation of New Antimicrobial Agents Based on tris(1H-Indol-3-yl)methylium Salts: Activity, Toxicity, Suppression of Experimental Sepsis in Mice” (Pharmaceuticals, 2022)
